The values that follow come from US20130072720A1, “PHARMACEUTICAL COMPOSITION FOR TREATMENT OF OSTEOARTHRITIS” (NATIONAL DEFENSE MEDICAL CENTER, priority 2011, published 2013).

In series [1] the test system is inducible nitric oxide synthase (iNOS). As to the kind of experiment: TNF-α-induced iNOS expression in chondrocytes. Type of series: cell-based, porcine. The following applies: chondrocytes stimulated by TNF-α (5 ng/ml), after 48 hours, HS—Cf in different concentrations. An excerpt: (§1) The following embodiments show suppression effect of HS—Cf on those factors involved in signaling pathways of TNF-α-induced IRF-1 expression and prevention effect of HS—Cf on TNF-mediated collagen loss and proteoglycan loss. All porcine chondrocytes used are obtained from the hind leg joints of pigs.
(§2) NO (nitric oxide) is generated by TNF-α-induced iNOS so that iNOS expression is correlated with NO production. HS—Cf in different concentrations are delivered to chondrocytes stimulated by TNF-α (5 ng/ml).

For series [2], the system named is NO (nitric oxide). As to the kind of experiment: NO production in TNF-α-stimulated chondrocytes. Type of series: cell-based, porcine. The following applies: chondrocytes stimulated by TNF-α (5 ng/ml), after 48 hours, HS—Cf in different concentrations.
Description: as §1, §2

The subject of series [3] is matrix metalloproteinase-1 (MMP-1). As to the kind of experiment: TNF-α-induced MMP-1 mRNA expression by Q-PCR. The following applies: porcine chondrocytes, HS—Cf 2 hours, then TNF-α (5 ng/ml) four hours. Type of series: cell-based. The procedure: as §1
TNF-α-induced MMP-1 is one of the factors that damage and destroy cartilage. Mix HS—Cf in different concentrations with porcine chondrocytes and react for 2 hours. Then add TNF-α (5 ng/ml) to stimulate porcine chondrocytes for four hours. Next measure mRNA expression by real-time quantitative-polymerase chain reaction (Q-PCR).

Series [4] deals with matrix metalloproteinase-3 (MMP-3). As to the kind of experiment: TNF-α-induced MMP-3 mRNA expression by Q-PCR. Type of series: cell-based. To be noted: porcine chondrocytes, HS—Cf 2 hours, then TNF-α (5 ng/ml) four hours. The procedure: as §1
TNF-α-induced MMP-3 is one of the factors that damage and destroy cartilage. Mix HS—Cf in different concentrations with porcine chondrocytes and react for 2 hours. Then add TNF-α (5 ng/ml) to stimulate porcine chondrocytes for four hours. Next measure mRNA expression by real-time quantitative-polymerase chain reaction (Q-PCR).

Series [5] relates to matrix metalloproteinase-13 (MMP-13). As to the kind of experiment: TNF-α-induced MMP-13 mRNA expression by Q-PCR. Type of series: cell-based. The following applies: porcine chondrocytes, HS—Cf 2 hours, then TNF-α (5 ng/ml) four hours. Here is the method: as §1
Mix HS—Cf in different concentrations with porcine chondrocytes and react for 2 hours. Then add TNF-α (5 ng/ml) to stimulate cells for four hours. Next observe mRNA expression by real-time quantitative-polymerase chain reaction (Q-PCR).

Series [6] relates to ADAMTS-4, also called Aggrecanase-1. As to the kind of experiment: TNF-α-induced ADAMTS-4 mRNA expression by Q-PCR. Type of series: cell-based. The following applies: porcine chondrocytes, HS—Cf 2 hours, then TNF-α (5 ng/ml) four hours. Here is the method: as §1
TNF-α induced ADAMTS-4 is one of the factors that damage and destroy cartilage. Mix HS—Cf in different concentrations with porcine chondrocytes and react for 2 hours. Then add TNF-α (5 ng/ml) to stimulate cells for four hours. Next measure mRNA expression by Q-PCR.

In series [7] the test system is ADAMTS-5, also called Aggrecanase-2. As to the kind of experiment: TNF-α-induced ADAMTS-5 mRNA expression by Q-PCR. The following applies: porcine chondrocytes, HS—Cf 2 hours, then TNF-α (5 ng/ml) four hours. Type of series: cell-based. Here is the method:
as §1
TNF-α induced ADAMTS-5 is one of the factors that damage and destroy cartilage. Mix HS—Cf in different concentrations with porcine chondrocytes and react for 2 hours. Then add TNF-α (5 ng/ml) to stimulate cells for four hours. Next observe mRNA expression by Q-PCR.

The subject of series [8] is collagen II. As to the kind of experiment: Loss prevention of collagen II under TNF-α stimulation, Western blot. The following applies: porcine chondrocytes, HS—Cf 24 hours, then TNF-α (5 ng/ml) 48 hours. Type of series: cell-based. Here is the method: as §1
As shown in the figure, after mixing porcine chondrocytes with TNF-α (5 ng/ml), the amount of collagen II at different times is determined by Western Blot. It is confirmed that collagen II is degraded and lost along with the time under TNF-α stimulation. […] Then add TNF-α (5 ng/ml) to stimulate porcine chondrocytes for 48 hours. Next use western blot to measure the amount of protein.

In series [9] the test system is proteoglycan (aggrecan). As to the kind of experiment: Loss prevention of proteoglycan under TNF-α stimulation, Safranin-O staining. The following applies: porcine chondrocytes, 5/or 10 μM HS—Cf 24 hours, then TNF-α (5 ng/ml) 72 hours. Type of series: cell-based. Here is the method:
as §1
Besides collagen II, loss of proteoglycan (aggrecan) is also affected by HS—Cf. […] Then add TNF-α (5 ng/ml) to stimulate porcine chondrocytes for 72 hours. Next use Safranin-O staining to observe the amount of proteoglycan in cartilaginous tissue.

The test system of series [10] is porcine chondrocytes. As to the kind of experiment: MTT cell viability assay. Type of series: cell-based. The following applies: any of the concentrations. An excerpt:
(§3) Cytotoxicity of HS—Cf also has been checked. HS—Cf is used as a pharmaceutical composition so that cytotoxicity of HS—Cf has to be carefully considered for determining whether HS—Cf can be used for treatment of osteoarthritis. […] Thus HS—Cf is used in treatment of organisms.
Background: Tetrazolium assays rely on reduction of a dye to a coloured formazan, in cell work by metabolically active cells.

Series [11] relates to porcine chondrocytes. As to the kind of experiment: lactate dehydrogenase (LDH) assay. To be noted: any of the concentrations. Type of series: cell-based.
Description: as §3

For `O=C(Nc1cccc(C(F)(F)F)c1)c1ccccc1O` [HS—Cf, 2-hydroxy-N-[3-(trifluoromethyl)phenyl]benzamide], in series [1], the iNOS expression entry is recorded as “significantly decreases iNOS expression at higher concentration”. Also, the NO production result in [2] is reported as “NO production is also reduced along with the increasing concentration”. The “MMP-1 mRNA expression” value in series [3] was “MMP-1 expression is decreased along with the increasing concentration”. Moreover, the “MMP-3 mRNA expression” value in [4] is listed as “decreases MMP-3 expression at higher concentration”. In series [5], the “MMP-13 mRNA expression” value is listed as “MMP-13 expression is decreased along with the increasing concentration”. The “ADAMTS-4 mRNA expression” value in [6] was “ADAMTS-4 expression is decreased along with the increasing concentration”. The “ADAMTS-5 mRNA expression” value in series [7] is recorded as “ADAMTS-5 expression is decreased along with the increasing concentration”. Further, the “degradation and loss of collagen II” value in [8] is “degradation and loss of collagen II is under control”. In addition, in series [9], the “degradation and loss of proteoglycan” value was “degradation and loss of proteoglycan is under control”. Besides, in series [10], the “cytotoxicity (MTT cell viability assay)” value was “no obvious cytotoxic effect”. Moreover, the “cytotoxicity (LDH assay)” value in series [11] is “no obvious cytotoxic effect”.
